Reference: US7056491B2, “Monoterpenes and sesquiterpenes as chemotherapeutic and radiation sensitizers and immunomodulators” (Wisconsin Alumni Research Foundation, priority 2000, dated 2006)

Assays:
[1] = tested on: rat mammary carcinoma; conditions: limonene, Haag et al.; cited from earlier work
[2] = tested on: 21–26 kD proteins, including small GTP-binding proteins; conditions: dose dependent, distal to HMG-CoA reductase; cited from earlier work
[3] = rats, 10% limonene diet for 10 weeks; cited from earlier work
[4] = tested on: T98G cells; experiment: Clonogenic survival, POH pretreatment then doxorubicin, T98G; format: cell-based, human; conditions: T98G
Procedure: Referring to FIG. 29, subconfluent cells of T98G cells were treated with varying concentrations of perillyl alcohol (0.1 mM–0.5 mM) for 48 hours and subsequently treated with the indicated dose of doxorubicin (0.01 uM–0.1 uM) for 48 hours. At the end of the treatment, POH-pretreated and untreated cells in the presence and absence of doxorubicin, were harvested, washed with PBS, plated at the desired cell number and incubated for two weeks. The colonies were stained with crystal violet and quantitated. Survival was determined as the ratio of plating efficiencies for each irradiated group to that of the untreated control. […] Doxorubicin at concentrations over 0.1 uM appeared to be toxic to the cells.

| Compound | effect on advanced rat mammary carcinomas [1] | isoprenylation of 21–26 kD proteins [2] | plasma levels of terpene metabolites [3] | concentrations toxic to the cells [4] |
| --- | --- | --- | --- | --- |
| C=C(C)[C@H]1CC=C(C)CC1 [limonene] | regression of advanced rat mammary carcinomas | inhibit isoprenylation | 270 µM | – |
| COc1cccc2c1C(=O)c1c(O)c3c(c(O)c1C2=O)C[C@@](O)(C(=O)CO)C[C@@H]3O[C@H]1C[C@H](N)[C@H](O)[C@H](C)O1 [Doxorubicin, reference compound] | – | – | – | over 0.1 uM |
